Earlier results in patent EP3731816B1, “SOLID ORAL PHARMACEUTICAL COMPOSITIONS COMPRISING APIXABAN” (Sanovel Ilac Sanayi ve Ticaret A.S., priority 2017, dated 2019).
Converted amounts (≈) assume the structure as drawn.

Key:
[1] = single 10 mg dose
[2] = at 24 °C

oral bioavailability [1]: about 50% | solubility in water [2]: 0.028 mg/mL (≈ 60.9 µM)
Structure (SMILES): COc1ccc(-n2nc(C(N)=O)c3c2C(=O)N(c2ccc(N4CCCCC4=O)cc2)CC3)cc1 [Apixaban, 1-(4-methoxyphenyl)-7-oxo-6-[4-(2-oxopiperidin-1-yl)phenyl]-4,5,6,7-tetrahydro-1H-pyrazolo[3,4-c]pyridine-3-carboxamide]
